Columns and labels:
Assay in all cases: antibiotic activity, bacterial growth inhibition in culture
Format in all cases: cell-based
Klebsiella Pneumonia = details: Klebsiella pneumoniae; 400 mcg/ml; 37° C. overnight; read-out: amount of bacterial growth inhibition (first figure)
Description: (§1) Bacteria were grown in a standard growth culture at pH 7.2. After the cultures were incubated at 37° C. overnight and diluted into fresh medium, controls and the test antibiotics dissolved in 0.3% hydroxy propylcellulose (HPC) were added at various concentrations and then reincubated overnight. The measure of antibiotic activity was determined by the amount of bacterial growth inhibition as shown by measurement of the optical density at 660 nm.

TA100 (Salmonella Sp.) = test system: TA100 (Salmonella Sp.)
Description: as §1

Pseudomonas Sp. = test system: Pseudomonas Sp.
Description: as §1

Staphylococcus Sp. = test system: Staphylococcus Sp.
Description: as §1

WP2s (E. coli) = test system: WP2s (E. coli)
Description: as §1

Listeria Sp. = test system: Listeria Sp.
Description: as §1

Q: How did the inhibition at 400 µg/mL (Klebsiella Pneumonia) turn out when `CO[C@@]12[C@H](COC(N)=O)C3=C(C(=O)C(C)=C(N)C3=O)N1C[C@H]1[C@@H]2N1C(=S)N[C@@H]1O[C@H](COC(C)=O)[C@@H](OC(C)=O)[C@H](OC(C)=O)[C@H]1NC(C)=O` [M-TAG, 1a(N-2-acetamido-3,4,6-tri-O-acetyl-2-deoxy-D-glucopyranosylthiocarbamoyl)-mitomycin C] was run?
A: 92%

Q: What about the “optical density at 660 nm (figure in parentheses)” value (“optical density at 660 nm” below) (TA100 (Salmonella Sp.); 0.04 mcg/ml) of the same compound?
A: 0.34

Q: What about the “optical density at 660 nm” value (TA100 (Salmonella Sp.); 0.4 mcg/ml) of the same compound?
A: 0.11

Q: What about the “optical density at 660 nm” value (TA100 (Salmonella Sp.); 4.0 mcg/ml) of the same compound?
A: 0.97

Q: And the “optical density at 660 nm” value (TA100 (Salmonella Sp.); 40 mcg/ml)?
A: 0.97

Q: What about the “optical density at 660 nm” value (TA100 (Salmonella Sp.); 400 mcg/ml) of the same compound?
A: 0.02

Q: What about the inhibition at 0.04 µg/mL (TA100 (Salmonella Sp.); Salmonella, 0.04 mcg/ml, 37° C. overnight, read-out: amount of bacterial growth inhibition (first figure)) of the same compound?
A: 46%

Q: What about the inhibition at 0.4 µg/mL (TA100 (Salmonella Sp.); Salmonella, 0.4 mcg/ml, 37° C. overnight, read-out: amount of bacterial growth inhibition (first figure)) of the same compound?
A: 78%

Q: What about the inhibition at 4 µg/mL (TA100 (Salmonella Sp.); Salmonella, 4.0 mcg/ml, 37° C. overnight, read-out: amount of bacterial growth inhibition (first figure)) of the same compound?
A: 80%

Q: What about the inhibition at 40 µg/mL (TA100 (Salmonella Sp.); Salmonella, 40 mcg/ml, 37° C. overnight, read-out: amount of bacterial growth inhibition (first figure)) of the same compound?
A: 80%

Q: What about the inhibition at 400 µg/mL (TA100 (Salmonella Sp.); Salmonella, 400 mcg/ml, 37° C. overnight, read-out: amount of bacterial growth inhibition (first figure)) of the same compound?
A: 95%

Q: And the “optical density at 660 nm” value (Pseudomonas Sp.; 0.04 mcg/ml)?
A: 0.52

Q: And the “optical density at 660 nm” value (Pseudomonas Sp.; 0.4 mcg/ml)?
A: 0.35

Q: What about the “optical density at 660 nm” value (Pseudomonas Sp.; 4.0 mcg/ml) of the same compound?
A: 0.13

Q: What about the “optical density at 660 nm” value (Pseudomonas Sp.; 40 mcg/ml) of the same compound?
A: 0.11

Q: What about the “optical density at 660 nm” value (Pseudomonas Sp.; 400 mcg/ml) of the same compound?
A: 0.11

Q: What about the inhibition at 0.04 µg/mL (Pseudomonas Sp.; Pseudomonas, 0.04 mcg/ml, 37° C. overnight, read-out: amount of bacterial growth inhibition (first figure)) of the same compound?
A: 30%

Q: What about the inhibition at 0.4 µg/mL (Pseudomonas Sp.; Pseudomonas, 0.4 mcg/ml, 37° C. overnight, read-out: amount of bacterial growth inhibition (first figure)) of the same compound?
A: 45%

Q: And the inhibition at 4 µg/mL (Pseudomonas Sp.; Pseudomonas, 4.0 mcg/ml, 37° C. overnight, read-out: amount of bacterial growth inhibition (first figure))?
A: 75%

Q: And the inhibition at 40 µg/mL (Pseudomonas Sp.; Pseudomonas, 40 mcg/ml, 37° C. overnight, read-out: amount of bacterial growth inhibition (first figure))?
A: 75%

Q: What about the inhibition at 400 µg/mL (Pseudomonas Sp.; Pseudomonas, 400 mcg/ml, 37° C. overnight, read-out: amount of bacterial growth inhibition (first figure)) of the same compound?
A: 78%

Q: And the “optical density at 660 nm” value (Staphylococcus Sp.; 0.04 mcg/ml)?
A: 0.52

Q: What about the “optical density at 660 nm” value (Staphylococcus Sp.; 0.4 mcg/ml) of the same compound?
A: 0.02

Q: What about the “optical density at 660 nm” value (Staphylococcus Sp.; 4.0 mcg/ml) of the same compound?
A: 0.018

Q: What about the “optical density at 660 nm” value (Staphylococcus Sp.; 40 mcg/ml) of the same compound?
A: 0.03

Q: And the “optical density at 660 nm” value (Staphylococcus Sp.; 400 mcg/ml)?
A: 0.00

Q: What about the inhibition at 0.04 µg/mL (Staphylococcus Sp.; Staphylococcus, 0.04 mcg/ml, 37° C. overnight, read-out: amount of bacterial growth inhibition (first figure)) of the same compound?
A: 30%

Q: What about the inhibition at 0.4 µg/mL (Staphylococcus Sp.; Staphylococcus, 0.4 mcg/ml, 37° C. overnight, read-out: amount of bacterial growth inhibition (first figure)) of the same compound?
A: 95%

Q: And the inhibition at 4 µg/mL (Staphylococcus Sp.; Staphylococcus, 4.0 mcg/ml, 37° C. overnight, read-out: amount of bacterial growth inhibition (first figure))?
A: 96%

Q: What about the inhibition at 40 µg/mL (Staphylococcus Sp.; Staphylococcus, 40 mcg/ml, 37° C. overnight, read-out: amount of bacterial growth inhibition (first figure)) of the same compound?
A: 94%

Q: What about the inhibition at 400 µg/mL (Staphylococcus Sp.; Staphylococcus, 400 mcg/ml, 37° C. overnight, read-out: amount of bacterial growth inhibition (first figure)) of the same compound?
A: 100%

Q: What about the “optical density at 660 nm” value (WP2s (E. coli); 0.04 mcg/ml) of the same compound?
A: 0.41

Q: And the “optical density at 660 nm” value (WP2s (E. coli); 0.4 mcg/ml)?
A: 0.29

Q: What about the “optical density at 660 nm” value (WP2s (E. coli); 4.0 mcg/ml) of the same compound?
A: 0.30

Q: What about the “optical density at 660 nm” value (WP2s (E. coli); 40 mcg/ml) of the same compound?
A: 0.12

Q: And the “optical density at 660 nm” value (WP2s (E. coli); 400 mcg/ml)?
A: 0.009

Q: And the inhibition at 0.04 µg/mL (WP2s (E. coli); Escherichia coli, 0.04 mcg/ml, 37° C. overnight, read-out: amount of bacterial growth inhibition (first figure))?
A: 39%

Q: And the inhibition at 0.4 µg/mL (WP2s (E. coli); Escherichia coli, 0.4 mcg/ml, 37° C. overnight, read-out: amount of bacterial growth inhibition (first figure))?
A: 51%

Q: And the inhibition at 4 µg/mL (WP2s (E. coli); Escherichia coli, 4.0 mcg/ml, 37° C. overnight, read-out: amount of bacterial growth inhibition (first figure))?
A: 50%

Q: What about the inhibition at 40 µg/mL (WP2s (E. coli); Escherichia coli, 40 mcg/ml, 37° C. overnight, read-out: amount of bacterial growth inhibition (first figure)) of the same compound?
A: 76%

Q: What about the inhibition at 400 µg/mL (WP2s (E. coli); Escherichia coli, 400 mcg/ml, 37° C. overnight, read-out: amount of bacterial growth inhibition (first figure)) of the same compound?
A: 98%

Q: What about the “optical density at 660 nm” value (Listeria Sp.; 0.04 mcg/ml) of the same compound?
A: 0.59

Q: What about the “optical density at 660 nm” value (Listeria Sp.; 0.4 mcg/ml) of the same compound?
A: 0.59

Q: What about the “optical density at 660 nm” value (Listeria Sp.; 4.0 mcg/ml) of the same compound?
A: 0.59

Q: And the “optical density at 660 nm” value (Listeria Sp.; 40 mcg/ml)?
A: 0.036

Q: And the “optical density at 660 nm” value (Listeria Sp.; 400 mcg/ml)?
A: 0.00

Q: What about the inhibition at 0.04 µg/mL (Listeria Sp.; Listeria, 0.04 mcg/ml, 37° C. overnight, read-out: amount of bacterial growth inhibition (first figure)) of the same compound?
A: 26%

Q: And the inhibition at 0.4 µg/mL (Listeria Sp.; Listeria, 0.4 mcg/ml, 37° C. overnight, read-out: amount of bacterial growth inhibition (first figure))?
A: 26%

Q: What about the inhibition at 4 µg/mL (Listeria Sp.; Listeria, 4.0 mcg/ml, 37° C. overnight, read-out: amount of bacterial growth inhibition (first figure)) of the same compound?
A: 26%

Q: What about the inhibition at 40 µg/mL (Listeria Sp.; Listeria, 40 mcg/ml, 37° C. overnight, read-out: amount of bacterial growth inhibition (first figure)) of the same compound?
A: 92%

Q: What about the inhibition at 400 µg/mL (Listeria Sp.; Listeria, 400 mcg/ml, 37° C. overnight, read-out: amount of bacterial growth inhibition (first figure)) of the same compound?
A: 100%
